# “Also recorded” adds a separate entry of the source.
# B1: 5′-UUUACCGUAAGGCCUGUCUUCGUUUGACAGCGGCUUGUUGACCCUCACACUUUGUACCUGCUGCCAA-3′ (nucleic acid)
# chain: UUUACCGUAAGGCCUGUCUUCGUUUGACAGCGGCUUGUUGACCCUCACACUUUGUACCUGCUGCCAA
# modifications: chemistry not given here
# Legend:
# Aβ(1-40) peptide [1] = target: T1, Aβ(1-40) peptide (Homo sapiens, UniProt P05067); test: Thioflavin T fluorescence assay of Aβ(1-40) peptide aggregation; conditions: for effect on Aβ(1-40) peptide aggregation: different concentrations of ligand
# T1 sequence (P05067 672-711 limits assumed): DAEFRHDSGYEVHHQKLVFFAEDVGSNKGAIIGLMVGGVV
# [2] = target: nicotinic acetylcholine receptor (Mus musculus, UniProt P02716+P04756+P04760+P09690); conditions: cited from earlier work
# nicotinic acetylcholine receptor, sequence (P04756 21-457): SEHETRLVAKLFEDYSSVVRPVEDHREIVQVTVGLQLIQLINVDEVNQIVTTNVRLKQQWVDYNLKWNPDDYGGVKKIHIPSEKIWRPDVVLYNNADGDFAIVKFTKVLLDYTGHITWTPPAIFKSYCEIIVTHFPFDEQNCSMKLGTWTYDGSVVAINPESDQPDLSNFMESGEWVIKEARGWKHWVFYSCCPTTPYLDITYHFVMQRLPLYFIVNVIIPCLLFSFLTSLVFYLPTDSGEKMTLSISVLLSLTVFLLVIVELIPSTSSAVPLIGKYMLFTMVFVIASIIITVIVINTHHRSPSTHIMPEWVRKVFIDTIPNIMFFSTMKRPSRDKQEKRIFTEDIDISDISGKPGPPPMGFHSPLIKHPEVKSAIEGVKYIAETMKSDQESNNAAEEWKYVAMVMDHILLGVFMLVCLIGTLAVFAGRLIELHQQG
# nicotinic acetylcholine receptor, sequence (P09690 24-501): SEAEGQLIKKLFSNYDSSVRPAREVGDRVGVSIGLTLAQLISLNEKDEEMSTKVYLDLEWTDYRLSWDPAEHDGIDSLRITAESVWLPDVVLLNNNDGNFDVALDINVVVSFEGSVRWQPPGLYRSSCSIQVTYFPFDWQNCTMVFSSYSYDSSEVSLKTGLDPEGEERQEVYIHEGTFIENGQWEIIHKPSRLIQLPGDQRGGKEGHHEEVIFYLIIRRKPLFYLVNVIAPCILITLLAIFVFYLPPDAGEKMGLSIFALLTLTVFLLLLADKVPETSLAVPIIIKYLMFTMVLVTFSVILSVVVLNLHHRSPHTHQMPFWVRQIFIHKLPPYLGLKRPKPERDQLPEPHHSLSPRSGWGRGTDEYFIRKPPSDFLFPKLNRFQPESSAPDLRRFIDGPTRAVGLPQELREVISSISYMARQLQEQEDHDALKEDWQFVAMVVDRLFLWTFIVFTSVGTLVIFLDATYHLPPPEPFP
# nicotinic acetylcholine receptor, sequence (P04760 23-519): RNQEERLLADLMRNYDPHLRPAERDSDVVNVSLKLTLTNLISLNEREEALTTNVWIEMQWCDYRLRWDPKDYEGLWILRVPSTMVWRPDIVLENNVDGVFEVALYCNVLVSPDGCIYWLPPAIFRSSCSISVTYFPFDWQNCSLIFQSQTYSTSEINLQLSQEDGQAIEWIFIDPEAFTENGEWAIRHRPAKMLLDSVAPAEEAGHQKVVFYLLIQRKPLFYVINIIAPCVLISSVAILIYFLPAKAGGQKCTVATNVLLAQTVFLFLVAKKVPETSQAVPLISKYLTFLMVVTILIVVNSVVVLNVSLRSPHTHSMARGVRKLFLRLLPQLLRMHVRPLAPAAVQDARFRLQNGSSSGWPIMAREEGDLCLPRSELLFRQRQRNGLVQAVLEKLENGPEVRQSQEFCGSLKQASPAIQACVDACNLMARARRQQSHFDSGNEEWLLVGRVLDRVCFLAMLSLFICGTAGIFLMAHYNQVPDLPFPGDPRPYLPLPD
# nicotinic acetylcholine receptor, sequence (P02716 25-520): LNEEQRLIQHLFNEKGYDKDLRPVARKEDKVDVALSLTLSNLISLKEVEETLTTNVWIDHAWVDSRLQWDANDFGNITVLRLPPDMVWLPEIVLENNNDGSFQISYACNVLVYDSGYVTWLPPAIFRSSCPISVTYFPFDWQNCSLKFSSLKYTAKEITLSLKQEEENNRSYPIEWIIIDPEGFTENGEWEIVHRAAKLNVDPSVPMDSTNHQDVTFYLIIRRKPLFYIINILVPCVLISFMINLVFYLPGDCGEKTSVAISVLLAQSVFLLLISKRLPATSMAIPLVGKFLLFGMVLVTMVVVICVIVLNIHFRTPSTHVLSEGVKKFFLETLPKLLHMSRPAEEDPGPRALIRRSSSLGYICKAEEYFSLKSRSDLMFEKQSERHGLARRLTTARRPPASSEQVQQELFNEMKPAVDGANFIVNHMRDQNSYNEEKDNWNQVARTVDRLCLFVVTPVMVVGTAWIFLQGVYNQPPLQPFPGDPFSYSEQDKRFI
# cardiovascular functions [3] = conditions: squirrel monkeys; cited from earlier work
# cardiac myocytes = conditions: cited from earlier work
# [4] = conscious rats; cited from earlier work
# cardiovascular functions [5] = conditions: anesthetized rats; cited from earlier work
# Aβ(1-40) peptide [6] = target: T1, Aβ(1-40) peptide; test: Electrophoretic mobility shift (gel-shift) binding assay with [3H]-cocaine; conditions: 7-μM [3H]-cocaine, 125-μM Aβ(1-40), pH 7.4; preliminary results
# Source text: The gel was cast in a vertical electrophoresis system of dimensions 7×8×0.15 cm and run at 100 V for 2 hr at room temperature. Lane I contains 7-μM [^3H]-cocaine only and Lane II contains 7-μM [^3H]-cocaine and 125-μM Aβ(1-40) peptide. The gel was then phosphor imaged; the contrast of the image was enhanced using ImageJ 1.34, in the process of which the contrast of the band streaks compared to background was lost. The square boxes correspond to the free [^3H]-cocaine trapped in the well; the circle corresponds to the [^3H]-cocaine bound to Aβ(1-40). […] The position of the peptide corresponded to the [^3H]-cocaine bound to Aβ(1-40) (circle) in the phosphorimage in FIG. 3A.
# On the other hand, the theoretical isolectric point of the Aβ(1-40) peptide is 5.37 (Wiltfang et al., “Highly Conserved and Disease-Specific Patterns of Carboxyterminally Truncated Aβ Peptides 1-37/38/39 in Addition to 1-40/42 in Alzheimer's Disease and in Patients with Chronic Neuroinflammation,” J. Neurochem. 81:481-496 (2002), which is hereby incorporated by reference in its entirety). […] The imaging plate is then scanned by using a Molecular Dynamics Storm 860 PhosphorImager, and band intensities are quantified by using the IMAGEQUANT software from Molecular Dynamics. […]
# [7] = target: T2, muscle type nicotinic acetylcholine receptor expressed in BC3H1 cells (Mus musculus, UniProt P02716+P04756+P04760+P09690); test: Whole-cell current recording, cell-flow technique, carbamoylcholine-induced currents; type: cell-based; conditions: 100-μM carbamoylcholine, listed as B55
# T2 construct: nicotinic acetylcholine receptors expressed on the surface of BC3H1 cells; endogenous in cells; host or cells: BC3H1 cells
# T2 sequence (P04756 21-457): as the sequence (P04756 21-457) above
# T2 sequence (P09690 24-501): as the sequence (P09690 24-501) above
# T2 sequence (P04760 23-519): as the sequence (P04760 23-519) above
# T2 sequence (P02716 25-520): as the sequence (P02716 25-520) above
# Method: Experiments were conducted at ˜22° C., −60 mV, and pH 7.4. The currents were induced by application of 100-μM carbamoylcholine only (lighter rising and falling line) or by a 2-second preincubation of the cells with 1-μM aptamer B55 followed by coapplication of the aptamer (at the same concentration used in preincubation) with 100-μM carbamoylcholine for 6 s (darker rising and falling line). The upper traces parallel to the abscissa represent the current amplitudes corrected for receptor desensitization that occurs during the rising phase. […] AO is the maximum current amplitude in the presence of 100-μM carbamoylcholine, and AI the maximum current amplitude in the presence of the same concentration of carbamoylcholine and different concentrations of aptamer B55. The whole-cell current was corrected for receptor desensitization. Each data point is the average of 2-4 measurements with at least two cells.
# Carbamoylcholine-induced currents were recorded using the whole-cell configuration at room temperature (22-23° C.), pH 7.4, and a transmembrane voltage of −60 mV. The currents were amplified using an Axopatch 200B amplifier (Axon Instruments, Union City, Calif.) and filtered at 1 kHz (using a four-pole low-pass Bessel filter incorporated in the Axopatch 200B amplifier). […]
# Aβ(1-40) peptide [8] = target: T1, Aβ(1-40) peptide; conditions: Ylera et al. 2002; read-out: Kd(amyloid) for the Aβ(1-40) peptide; cited from earlier work
molecule,measurement,setting,value
CN1C2CC(S(=O)(=O)c3ccccc3)C1C(C(=O)[O-])=CC2=O.[Li+] (stereo not shown) [RCS-III-143],effect on Aβ(1-40) peptide aggregation,"Aβ(1-40) peptide [1]; 50-μM Aβ(1-40), 37° C., 2 days",inhibit aggregation
COC(=O)C1C(OC(C)=O)CC2CCC1N2C (stereo not shown) [reference compound],effect on Aβ(1-40) peptide aggregation,"Aβ(1-40) peptide [1]; 50-μM Aβ(1-40), 37° C., 2 days",does not inhibit aggregation; also recorded: dose-dependent acceleration
same,alleviation of cocaine inhibition of the nicotinic acetylcholine receptor,[2],does not alleviate cocaine inhibition
"C[C@]12N[C@H](Cc3ccccc31)c1ccccc12 [MK-801, dizocilpine, reference compound]",effect on Aβ(1-40) peptide aggregation,"Aβ(1-40) peptide [1]; 50-μM Aβ(1-40), 37° C., 2 days",inhibit aggregation of Aβ(1-40) in a dose-dependent manner; also recorded: dose-dependent inhibition
COC(=O)C1=C(c2ccccc2)C(=O)C2CC(S(=O)(=O)c3ccccc3)C1N2C (stereo not shown) [RCS-III-202A],effect on Aβ(1-40) peptide aggregation,"Aβ(1-40) peptide [1]; 50-μM Aβ(1-40), 37° C., 2 days",inhibit aggregation
"c1ccc(C2(N3CCCCC3)CCCCC2)cc1 [PCP, phencyclidine, reference compound]",effect on Aβ(1-40) peptide aggregation at 1 mM,"Aβ(1-40) peptide [1]; 1-mM PCP, 50-μM Aβ(1-40), 37° C., 2 days",abrogates Aβ aggregation; also recorded: abolished amyloid aggregation
COC(=O)C1C(O)CC2CCC1N2C (stereo not shown),"dose with no effect on cardiovascular functions in vivo, i.v. bolus",cardiovascular functions [3],up to 10 mg/kg
same,effect on Aβ(1-40) peptide aggregation,"Aβ(1-40) peptide [1]; 50-μM Aβ(1-40), 37° C., 2 days",inhibit aggregation of Aβ(1-40) in a dose-dependent manner; also recorded: dose-dependent inhibition
same,concentration required to abolish the aggregation of Aβ(1-40) in the brain (estimated therapeutic concentration),Aβ(1-40) peptide [1]; order-of-magnitude approximation calculated from FIG. 4A and CSF Aβ(1-40) concentration,~40 ng/g
same,concentration with no effect on cardiovascular functions in vitro,cardiac myocytes,up to 100 μM
same,brain tissue concentration corresponding to the lowest toxic daily dose,[4],478.43±57.89
same,"dose with no effect on cardiovascular functions in vivo, i.v. infusion",cardiovascular functions [5],up to 1.5 mg/kg/min
"UUCACCG ((i.e., UUCACCG); as printed in the source, key not given here)",effect on Aβ(1-40) peptide aggregation at 500 μM,"Aβ(1-40) peptide [1]; 500-μM oligonucleotide, 50-μM Aβ(1-40), 37° C., 2 days",abolished amyloid aggregation
COC(=O)C1=CC(=O)C2CC(S(=O)(=O)c3ccccc3)C1N2C (stereo not shown) [RCS-III-140A],effect on Aβ(1-40) peptide aggregation,"Aβ(1-40) peptide [1]; 50-μM Aβ(1-40), 37° C., 2 days",inhibit aggregation
CN1C2CC(S(=O)(=O)c3ccccc3)C1C(C(=O)[O-])=C(c1ccccc1)C2=O.[Li+] (stereo not shown) [RCS-III-218],effect on Aβ(1-40) peptide aggregation,"Aβ(1-40) peptide [1]; 50-μM Aβ(1-40), 37° C., 2 days",inhibit aggregation
COC(=O)C1C(OC(=O)c2ccccc2)CC2CCC1N2C (stereo not shown) [cocaine],effect on Aβ(1-40) peptide aggregation,"Aβ(1-40) peptide [1]; 50-μM Aβ(1-40), 37° C., 2 days",dose-dependent inhibition
same,binding of cocaine to the Aβ(1-40) peptide,Aβ(1-40) peptide [6],binds; also recorded: direct binding
CN1C2CCC1C(C(=O)O)C(c1ccc(Cl)cc1)C2 (stereo not shown) [RTI-4229-70],effect on Aβ(1-40) peptide aggregation,"Aβ(1-40) peptide [1]; 50-μM Aβ(1-40), 37° C., 2 days",dose-dependent inhibition
same,effect on Aβ(1-40) peptide aggregation,"Aβ(1-40) peptide [1]; 50-μM Aβ(1-40), 37° C., 2 days, listed as RTI 4220-70",inhibit aggregation of Aβ(1-40) in a dose-dependent manner
CN1C2CCC1C(C(=O)O)C(O)C2 (stereo not shown) [ecgonine],effect on Aβ(1-40) peptide aggregation,"Aβ(1-40) peptide [1]; 50-μM Aβ(1-40), 37° C., 2 days",inhibit aggregation of Aβ(1-40) in a dose-dependent manner; also recorded: dose-dependent inhibition
B1,inhibition of carbamoylcholine-induced currents from the nicotinic acetylcholine receptor,[7],inhibited carbamoylcholine-induced currents from the nicotinic acetylcholine receptor in a dose-dependent manner; also recorded: inhibition
same,Kd,Aβ(1-40) peptide [8],29 nM

# From patent US9233106B2, “Inhibition of beta-amyloid peptide aggregation” (CORNELL RESEARCH FOUNDATION, INC., priority 2006, dated 2016)
